The values that follow come from ChEMBL document CHEMBL1158772, “Benzophenones from Hypericum carinatum” (J Nat Prod, 2005).

What all share (format): functional
Test [1] in a line: Antioxidant activity assessed as ABAP free radical scavenging measured by TRAP assay.
Test [2] is described as follows: Antioxidant activity assessed as ABAP free radical scavenging measured at 3.2 mM by TRAP assay.
The nature of test [3]: Antioxidant activity assessed as ABAP free radical scavenging measured at 1.6 mM by TRAP assay.

Active and inactive are the calls of the source. The rule behind the calls is not given here.

On to `CC(C)C(=O)C1=C(O)C(Cc2c(O)c3c(c(C(=O)C(C)C)c2O)OC(C)(C)C=C3)=C(O)C(C)(C)C1=O`, for which the outcome in test [1] was inactive.

For the molecule `Cc1c(O)c2c(c(C(=O)c3ccccc3)c1O)OC(C)(C)C=C2`, in test [1], the result was inactive.

In the case of `Cc1c(O)c(C(=O)c2ccccc2)c(O)c2c1OC(C)(C)C=C2`, the result in test [2] and in test [3] was Active.

`O=c1c(O)c(-c2ccc(O)c(O)c2)oc2cc(O)cc(O)c12`: the outcome in test [2] was Active.
